Measurements: patent US20240366607A1, “COMPOSITION FOR PREVENTION OR TREATMENT OF ATOPIC DERMATITIS COMPRISING AKT SIGNALING PATHWAY INHIBITOR AS ACTIVE INGREDIENT” (priority 2021, published 2024)

Assays:
normal skin tissue = test: MTT assay, cell viability in normal skin tissue; format: cell-based; details: for cell viability: normal skin tissue
Experimental: To determine the final concentration of the drug ipatasertib, normal skin tissue was seeded in a 96-well plate, and treated with ipatasertib at varying concentrations of 1 μM, 10 μM, 50 μM, 100 μM, and 200 μM. The safety and toxicity of the drug to the normal skin tissue were evaluated by measuring the absorbance at 540 nm.

serum total IgE = test: Serum total IgE by ELISA in atopic dermatitis mouse model; format: in vivo
Experimental: (§1) Atopic skin lesions were induced in NC/Nga mice by treatment with HDM three times a week until 4 weeks after the start of the experiment, and then each mouse was treated with ipatasertib and/or 0.1% dexamethasone (200 μL) three times a week for another four weeks (FIG. 3). Control groups consisted of a non-HDM-treated group (3 animals), a HDM-treated group (3 animals), and a HDM-and 0.1% dexamethasone-treated group (3 animals, positive control group), and experimental groups were administered ipatasertib after HDM treatment. Then, in order to check changes in skin-specific T cells in each animal, single suspensions were prepared using the spleen, skin, and lymph nodes, and T-cells were stained using anti-CD3, anti-CD4, anti-CD8, and CD45 antibodies. Flow cytometry was performed on skin-specific T cells using anti-CD69 and anti-CD103 antibodies, thereby observing the changes in number and distribution of skin-specific T cells by the application of the drug.
(§2) Blood was collected from the mouse heart, and then serum total DF-specific IgE (ng/mL) (A450) was measured in a 96-well plate (Corning Inc., Corning, NY, USA) using the ELISA MAX™ Delux Set (BioLegend, San Diego, CA, USA) kit.
The changes in serum total IgE levels in atopic dermatitis mouse models by ipatasertib treatment were measured. […]

[1] = tested on: T cells in skin-draining lymph nodes; test: FACS of T cell fractions in skin-draining lymph nodes of atopic dermatitis mouse model; format: in vivo
Experimental: as §1

T cells in the spleen = test: FACS of T cell fractions in spleen of atopic dermatitis mouse model; format: in vivo
Experimental: as §1

DF-specific IgE = test: Serum total DF-specific IgE by ELISA in atopic dermatitis mouse model; format: in vivo; details: 100 μM
Experimental: as §1, §2
House dust mites are a common cause of allergy, and based on this fact, DF-specific IgE was measured.

[2] = tested on: human T cells in the skin of the avatar mouse; test: Human T cell fractions in the skin of the avatar mouse; format: in vivo
Experimental: (§3) PBMCs were obtained from blood samples isolated from atopic dermatitis patients, and then CD3+ T cells, which are pathogenic cells, and CD3-depleted PBMCs, which are antigen-presenting cells, were separated therefrom. Human PBMC cells obtained by this method were injected into an immunodeficient NSG mouse by two different routes of administration. That is, avatar mice were prepared by injecting CD3+ T cells, which are pathogenic cells, through intravenous injection, and CD3-depleted PBMCs through intradermal injection. After the hair on the back of the prepared avatar mouse was shaved, dead skin cells were removed using 3M film once every three days, and 100 mg of house dust mite ointment was applied to the back of the mouse for three weeks. Then, from week 4, the mouse was treated with house dust mite ointment plus ipatasertib to evaluate the therapeutic effect of ipatasertib (FIG. 14A).

[3] = tested on: skin tissue of NC/Nga mice; test: H&E staining of skin tissue of HDM-treated NC/Nga mice (eosinophil count, epidermal thickness); format: in vivo, mouse
Experimental: Data are expressed as mean±standard deviation (SD). **P<0.01, *P<0.05.
as §1
Patients with allergic diseases often have a blood eosinophil count that increased by more than 5%, and based on this fact, eosinophils were counted by hematoxylin and eosin (H&E) staining. […] In addition, when atopic dermatitis occurs, the skin thickens due to an excessive inflammatory response.

[4] = tested on: skin-specific T cells in the skin; test: FACS of skin-specific T cell fractions in skin of atopic dermatitis mouse model; format: in vivo
Experimental: as §1

[5] = tested on: humanized avatar mouse model; test: Therapeutic effect in humanized avatar mouse model with HDM-induced atopic dermatitis; format: in vivo; details: applied to the back three times a week for one week after three weeks HDM
Experimental: as §3

[6] = tested on: NC/Nga mice with induced atopic dermatitis; test: HDM-induced atopic dermatitis in NC/Nga mice: skin lesions and SCORAD index; format: in vivo, mouse
Experimental: NC/Nga mice showing clinical and histological phenotypes similar to atopic dermatitis were used. To prepare atopic dermatitis animal models, atopic skin lesions were induced by treating mice with house dust mites (HDM), a representative trigger/aggravator of atopic dermatitis (FIG. 2).
as §1
To evaluate the effect of ipatasertib administration in NC/Nga mice with induced atopic dermatitis, atopic dermatitis was induced by applying house dust mite (HDM) ointment to the mouse's back three times a week for 4 weeks, and then ipatasertib drug was applied to the mouse's back three times a week for another 4 weeks. […] Each score was obtained by the Wilcoxon signed-rank test, and P<0.05 was considered statistically significant. Three mice per group were tested.

skin-specific T cells = test: FACS of T cells using skin immune cells and skin lesions of atopic dermatitis patients; format: cell-based, human
Experimental: To verify the effect of the candidate drug on skin-specific T cells in human skin tissue, a single suspension was prepared using the skin from an atopic dermatitis patient. T cells were stained using anti-CD3, anti-CD4, anti-CD8 and anti-CD45 antibodies, and flow cytometry was performed on skin-specific T cells using anti-CD69 and anti-CD103 antibodies, thereby observing the changes in number and distribution of skin-specific T cells by the application of the drug.

[7] = 100 μM, compared to 0.1% dexamethasone group

CC(C)NC[C@@H](C(=O)N1CCN(c2ncnc3c2[C@H](C)C[C@H]3O)CC1)c1ccc(Cl)cc1 [ipatasertib]
cell viability (normal skin tissue; 50 μM): ≥ 90% | cell viability (normal skin tissue; 100 μM): ≥ 90% | toxicity in normal skin tissue (normal skin tissue; up to 100 μM): no significant toxicity | decrease in the total serum IgE level (serum total IgE; [7]): significantly greater | serum total IgE level (serum total IgE; ELISA, ipatasertib groups up to 100 μM): decreased in a dose-dependent manner | fraction of T cells expressing CD69 among CD3+ CD4+ T cells [1]: tended to decrease | fraction of CD3+ CD4+ CD103+ T cells ([1]; 100 μM): statistically significantly lowest | proportion of CD3+ T cells ([1]; 100 μM): lowest proportion of CD3+ T cells | CD69+ T cells and CD103+ T cells (T cells in the spleen): decreased statistically significantly | proportion of CD3+ and CD4+ T cells (T cells in the spleen): decreased in a dose-dependent manner | total DF-specific IgE level (DF-specific IgE): significantly decreased | total DF-specific IgE level (DF-specific IgE; compared to 0.1% dexamethasone group): significantly decreased even compared to that in the 0.1% dexamethasone group | proportion of human CD3 T cells ([2]; 100 μM, compared to control group): significantly decreased compared to that in the control group | proportions of human CD8 and CD4 cells ([2]; drug-treated group): significantly lower | eosinophil count [3]: decreased depending on the ipatasertib concentration | epidermal thickness [3]: decreased as the concentration of ipatasertib increased | proportions of CD3+, CD4+, CD69+, and CD103+ skin-specific T cells ([4]; 50 μM, skin): significantly decreased | proportions of CD3+, CD4+, CD69+, and CD103+ skin-specific T cells ([4]; 100 μM, skin): significantly decreased | CD69+ T cells and CD103+ T cells ([4]; skin tissues of the ipatasertib groups): statistically significantly decreased | proportions of skin-specific T cells ([4]; skin, compared to 0.1% dexamethasone-treated group): significantly decreased even compared to that in the 0.1% dexamethasone-treated group | therapeutic effect against atopic dermatitis [5]: clinically significant therapeutic effect | recovery of skin lesions ([6]; 100 μM, applied to the back three times a week for 4 weeks): most notable recovery | scoring atopic dermatitis (SCORAD) index [6, 7]: lower SCORAD index than the 0.1% dexamethasone-administered group | therapeutic effect on atopic dermatitis skin lesions ([6]; applied to the back three times a week for 4 weeks after 4 weeks HDM): significant therapeutic effect was observed in a drug concentration-dependent manner | wounds, dryness, and shedding ([6]; compared to positive control 0.1% dexamethasone): significantly reduced compared to the positive control group administered 0.1% dexamethasone | scoring atopic dermatitis (SCORAD) index ([6]; ipatasertib-administered groups, three mice per group): significantly decreased | proportion of skin-specific T cells (skin-specific T cells; 50 μM): significantly decreased | proportion of skin-specific T cells (skin-specific T cells; 100 μM): significantly decreased
